Results as given in EP1935986B1, “Luminogenic and fluorogenic compounds and methods to detect molecules or conditions” (priority 2005, dated 2006).
Values joined by “and” are separate entries in the source; they are usually repeats but may differ in a detail not shown here. Equal entries are not always repeated.

How the values were obtained:
luciferase = assay: No-enzyme control: activity of luciferase towards the luciferin derivative (background luminescence)
Procedure: The reactions (Table 1) were assembled by first adding the water and 1 M BisTris solutions in individual 0.5 ml microfuge tubes, then adding the other components except for the GST #3 solution. Finally, the GST #3 (Figure 12) solution was added to the reactions, the resulting solution was mixed, and the time of addition noted. […]
The GST #3 addition was performed last and the solutions were mixed immediately after addition of GST #3. […] After mixing, the light produced by the solution was measured using a Turner TD 20/20 luminometer.
After assembly, the enzyme stock solutions were diluted 1:10 into 10 mM HEPES, pH 7.5 and the following additions were made to the reactions.
A 5 µl sample of the luciferol DMF solution was added to each of the reactions above and a timer was started upon the addition of the first luciferol/DMF solution to reaction 1. All reactions were kept at room temperature.
After incubating 5 minutes at room temperature, the light produced by these samples was measured using a Turner TD 20 luminometer.
To initiate the conversions, 5 µl of luciferol solution was added to reactions […], 6-9, and 11-15, and 10 µl of luciferol was added to reactions 5 and 10 and the tubes mixed after that addition. Immediately after luciferol addition to reaction 1, a timer was started and the time of luciferol addition to the other tubes noted. After mixing, reaction 11-15 were placed at 37°C.
After incubating 10 minutes at room temperature, the light produced by these samples was read using a Turner TD 20 luminometer (Table 18).
To initiate Step 1, 45 µl of enzyme and buffer were added to each well.
Solution A and Solution B are components of the NADPH Regeneration System (V9510, Promega Corp., Madison WI). […] Solution B contains 40 units/ml glucose-6-phosphate dehydrogenase in 5 mM citrate pH 5.5.

[1] = tested on: thermostable luciferase (Luc 146-1H2); assay: Thermostable luciferase reaction with luciferin derivatives: light readings; type: biochemical; settings: 100 µM each; result in words
Procedure: This stock was used to produce enzyme stock solution having of 200 µg/ml enzyme solution in 1 mg/ml BSA, 200 mM HEPES buffer, pH 8.0, 20 mM MgCl2.
Solutions were made using a 1 M DTT solution, pH adjusted to 8.0, a 20 mM Coenzyme A solution in water (both described in examples above), a 100 mM ATP solution and water to create the following solutions: Sol'A, 100 µM ATP; Sol'B, 100 µM ATP, 4 mM Coenzyme A; Sol'n C, 100 µM ATP, 400 mM DTT, and; Sol'n D, 100 µM ATP, 4 mM Coenzyme A and 400 mM DTT.
The following reactions were prepared (Table 47) Table 47
After assembly, the reactions were initiated by addition of 25 µl of the thermostable luciferase stock solution above and mixing the tube contents. A 50 µl sample was immediately removed and placed in a luminometer tube and the light read and the tube then replaced in a tube rack at room temperature. While the light reading was being taken, a 5 µl sample of the remaining reaction (which was kept at room temperature) was diluted into 495 µl of 50 mM BisTris, pH 6.5, 1 mg/ml BSA, 1 mM EDTA prechilled to 4°C and the tube mixed and placed on ice. The light produced by the samples in the luminometer tubes were re-read at 20, 40, 60, 90 and 120 minutes post enzyme addition. Additional 5 µl samples were taken and diluted as above at 60 and 120 minutes post enzyme addition. Once all these readings and samples were taken, 50 µl of the diluted samples was mixed with 50 µl of Steady Glo in luminometer tubes, the tubes incubated 10 minutes on ice then the light produced was read on a Turner TD 20/20 luminometer.

SMILES	light produced (luciferase; Table 18 Rx 1: no enzyme, KPO4 pH 7.4, room temperature, 30/60/95/190/280 minutes)	light produced (luciferase; Table 18 Rx 11: no enzyme, 37°C, time)	brightness of luciferase reaction relative to amino luciferin [1]
OC[C@H]1CSC(c2nc3ccc(O)cc3s2)=N1 [luciferol]	6.077 and 6.091 and 5.849 and 4.364 and 7.694	5.814 and 6.078 and 6.302 and 6.889 and 8.399	
CN(C)c1ccc2nc(C3=NC(C(=O)O)CS3)sc2c1 (stereo not drawn) [dimethyl amino luciferin]			about half as bright
